Residues, ends and D or L forms follow the SMILES beside them.
Columns and labels:
[1] = Stability test in rat plasma; assay type: in vitro ADME; conditions: for Analyte Remaining %: 10 mg/ml stock into plasma 1:1, LC-MS; for Concentration calculated from LC-MS data: 10 mg/ml stock into plasma 1:1, methanol precipitation, 0.45 µm filtration
Protocol: Analytic HPLC-MS was performed using an Agilent 1260 series Liquid Chromatography/Mass Selective Detector (MSD) equipped with an electrospray interface and a UV diode array detector. Analyses were performed on an ACE C8, 50 × 3.0 mm, 3 µm column, with an isocratic 0.1% formic acid/ACN eluent, at a rate of 1 ml/min over a period of 5 min. UV absorption was measured at 280 nm, 220 nm, and 215–395 nm. MS analysis was performed with ESI (electron spray ionization) with a positive ionization method.
Four reaction systems were prepared; INS and INR2 in human plasma, INS and INR2 in rat plasma (Supplementary Table 2). Freshly prepared 10 mg/ml stock solution of the peptides was injected into plasma or PBS solution (1:1). The mixture was diluted with methanol to precipitate the plasma proteins. The samples were filtered through PTFE 0.45 µm filters and run in LC-MS. Samples were taken at the following times: 0, 15, 30, 60, 120, 240, and 480 min and after 24 h.

SD rats = assay: Immunogenicity, anti-peptide antibody ELISA; assay type: in vivo, rat; conditions: biweekly administrations over 10 weeks, serum 1:50
Protocol: Animals were fed ad libitum a commercial rodent diet (Teklad Certified Global 18% Protein Diet). Animals had free access to sterilized and acidified drinking water (pH between 2.5 and 3.5). SD rats were randomly allocated to cages and treated twice a week, for ten weeks with INS peptide, at two doses of 1.5 and 7.5 mg/kg. Rat blood was collected before immunization (exposure to the peptide) to serve as a baseline, and after immunization at day 21, 35, 49, and 70/72. The immunogenicity was analyzed by evaluation of anti-peptide antibodies in the sera of SD rats, using a specific developed ELISA test. A 96 well plate was coated overnight with INS labeled with biotin (5 µg/ml) (Thermo Scientific) followed by blocking (3% Milk in PBS) for 1 h at room temperature (RT). Serum samples were diluted at 1:50 and added to the plates for 1 h at RT. After washing with PBST (three times), a donkey anti-rat antibody (Jackson Laboratories, cat. no. 705-035-003) (diluted 1:5000) was added and incubated for 1 h at RT. Then, TMB, diluted 1:2 was added and the reaction was stopped after 10 min with HCL solution. Absorbance was measured by an automated microplate reader (iMARK microplate reader, BioRad) with a wavelength of 450 nm.

## CC[C@H](C)[C@H](NC(=O)[C@H](Cc1ccccc1)NC(=O)[C@@H](NC(=O)[C@H](C)NC(=O)[C@H](CCSC)NC(=O)[C@H](CCC(N)=O)NC(=O)[C@@H](NC(=O)[C@H](C)NC(=O)[C@@H](NC(=O)[C@@H](N)Cc1c[nH]c2ccccc12)[C@@H](C)O)C(C)C)C(C)C)C(=O)N[C@@H](Cc1c[nH]cn1)C(=O)N[C@@H](CC(N)=O)C(=O)N[C@@H](Cc1ccccc1)C(=O)N[C@@H](CCCCN)C(=O)N[C@@H](CCCNC(=N)N)C(=O)N[C@@H](CCCCN)C(=O)O [INS] (H-WTAVQMAVFIHNFKRK-OH)
[1]; 0 h
  Analyte Remaining %: 80.3%
  Concentration calculated from LC-MS data: 4010 µg/mL
[1]; 0.25 h
  Analyte Remaining %: 68.2%
  Concentration calculated from LC-MS data: 3410 µg/mL
[1]; 0.5 h
  Analyte Remaining %: 65.3%
  Concentration calculated from LC-MS data: 3260 µg/mL
[1]; 1 h
  Analyte Remaining %: 58.9%
  Concentration calculated from LC-MS data: 2940 µg/mL
[1]; 2 h
  Analyte Remaining %: 50.5%
  Concentration calculated from LC-MS data: 2530 µg/mL
[1]; 4 h
  Analyte Remaining %: 38.6%
  Concentration calculated from LC-MS data: 1930 µg/mL
[1]; 8 h
  Analyte Remaining %: 36.1%
  Concentration calculated from LC-MS data: 1800 µg/mL
[1]; 24 h
  Analyte Remaining %: 14.8%
  Concentration calculated from LC-MS data: 740 µg/mL
SD rats; dose level 1.5 (mg/kg)
  Immunogenicity (anti-peptide antibodies, ELISA; words): no
SD rats; dose level 7.5 (mg/kg)
  Immunogenicity (anti-peptide antibodies, ELISA; words): very low

From article PMC8175240, “Integrase-derived peptides together with CD24-targeted lentiviral particles inhibit the growth of CD24 expressing cancer cells” (Oncogene, 2021)
